Legend:
Test in all cases: Combination treatments, Cell Titer-Glo viability after 72 hours
Format in all cases: cell-based, human
HL-60 cell line = settings: HL-60
Experimental: (§1) The additional therapeutic agents for this example were azacitidine (Cayman Chemical Cat No. 11164), decitabine (Sigma Cat No. A3656) and venetoclax (InvivoChem Cat. No. V0001).
(§2) Cell Culture: Three human acute myeloid leukemia tumor cell lines were used in this study: HL60, MV4;11 and MOLM-13. HL60 and MV4;11 were grown in IMDM base media with 20% and 10% FBS, respectively. MOLM-13 was grown in RPMI 1640 base media with 20% FBS. All culture media contained 2 mM glutamine, 100 units/mL sodium penicillin G, […] gentamicin, and 100 μg/mL streptomycin sulfate. The tumor cells were cultured in tissue culture flasks in a humidified incubator at 37° C., in an atmosphere of 5% C02 and 95% air. Assay: Tumor cells were seeded in duplicate in a volume of 100 μL/well of media into 96-well micro-culture plates at initial densities low enough to allow for several population doublings (typically three to five) during the indicated incubation period. After a 24 hour incubation, test agents were added to each well. After 72 hours of culture with test articles, cell viability was determined using the Cell Titer-Glo® (Promega G7571) assay. Briefly, Cell Titer-Glo® (Promega G7571) reagents were equilibrated at room temperature for 30 minutes; 100 μL per well was added at endpoint (72 hours). Plates were gently shaken for two minutes and then incubated at room temperature for ten minutes prior to reading luminescence on the BMG Clariostar Plus microplate reader.
(§3) An IC50 ratio for each combination was calculated from the ratio of the combination IC50 as compared to the applicable no fixed agent (vehicle) control.

MOML-13 cell line = settings: MOML-13
Experimental: as §1, §2, §3

MV4; 11 cell line = settings: MV4, 11
Experimental: as §1, §2, §3

[1] = Homo sapiens, 72 h, no fixed agent (vehicle), read-out: IC50
[2] = fixed agent Venetoclax+ Azacitidine - 20 nM

`Cc1cc2c(C(N)=O)cccc2n1-c1nc2c(c(NCc3ccccc3)n1)CCCN2` [Compound 1, 1-(4-(Benzylamino)-5,6,7,8-tetrahydropyrido[2,3-d]pyrimidin-2-yl)-2-methyl-1H-indole-4-carboxamide] was tested, and the “Combination: Monotherapy IC50 Ratio” value (HL-60 cell line; fixed agent Azacitidine - 5750 nM) was 1.02, the “Combination: Monotherapy IC50 Ratio” value (HL-60 cell line; fixed agent Azacitidine - 9800 nM) was 0.85 and the “Combination: Monotherapy IC50 Ratio” value (HL-60 cell line; fixed agent Decitabine - 175 nM) was 0.96. For the same compound, the “Combination: Monotherapy IC50 Ratio” value (HL-60 cell line; fixed agent Decitabine - 1700 nM) was 1.06, the “Combination: Monotherapy IC50 Ratio” value (HL-60 cell line; fixed agent Venetoclax+ Azacitidine - 85 nM) was 0.84 and the “Combination: Monotherapy IC50 Ratio” value (HL-60 cell line; fixed agent Venetoclax+ Azacitidine - 475 nM) was 0.84. The IC50 (HL-60 cell line; [1]) was 305 nM, the IC50 (MOML-13 cell line; [1]) was 216 nM and the “Combination: Monotherapy IC50 Ratio” value (MOML-13 cell line; fixed agent Azacitidine - 105 nM) was 0.39. For the same compound, the “Combination: Monotherapy IC50 Ratio” value (MOML-13 cell line; fixed agent Azacitidine - 850 nM) was 0.39, the “Combination: Monotherapy IC50 Ratio” value (MOML-13 cell line; fixed agent Decitabine - 2.5 nM) was 0.56 and the “Combination: Monotherapy IC50 Ratio” value (MOML-13 cell line; fixed agent Decitabine - 8.5 nM) was 0.30. For the same compound, the “Combination: Monotherapy IC50 Ratio” value (MOML-13 cell line; fixed agent Venetoclax+ Azacitidine - 6.5 nM) was 0.71, the “Combination: Monotherapy IC50 Ratio” value (MOML-13 cell line; [2]) was 0.52 and the IC50 (MV4; 11 cell line; [1]) was 251 nM. For the same compound, the “Combination: Monotherapy IC50 Ratio” value (MV4; 11 cell line; fixed agent Azacitidine - 500 nM) was 0.46, the “Combination: Monotherapy IC50 Ratio” value (MV4; 11 cell line; fixed agent Azacitidine - 3150 nM) was 0.47 and the “Combination: Monotherapy IC50 Ratio” value (MV4; 11 cell line; fixed agent Decitabine - 30 nM) was 0.47. For the same compound, the “Combination: Monotherapy IC50 Ratio” value (MV4; 11 cell line; fixed agent Decitabine - 215 nM) was 0.36, the “Combination: Monotherapy IC50 Ratio” value (MV4; 11 cell line; [2]) was 0.65 and the “Combination: Monotherapy IC50 Ratio” value (MV4; 11 cell line; fixed agent Venetoclax+ Azacitidine - 50 nM) was 0.47.
